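Assay format: 96-well plates, 48-hour exposure. GI50 = concentration required for 50% inhibition of growth. TGI: concentration producing complete growth inhibition.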
Experiments:
Assay in all cases: DTP human tumour cell line panel, 48 h
[1] = system: SF-295 CNS
[2] = system: HT29 colon
[3] = system: EKVX NSCLC
[4] = system: UO-31 renal
[5] = system: CAKI-1 renal
[6] = system: OVCAR-3 ovarian
[7] = system: SR leukemia
[8] = system: OVCAR-8 ovarian
[9] = system: U251 CNS
[10] = system: HOP-92 NSCLC
[11] = system: SNB-19 CNS
[12] = system: SN12C renal
[13] = system: T-47D breast
[14] = system: NCI/ADR-RES ovarian
[15] = system: OVCAR-5 ovarian
[16] = system: MDA-MB-435
[17] = system: A498 renal
[18] = system: SF-539 CNS
[19] = system: KM12 colon
[20] = system: UACC-257 melanoma
[21] = system: SF-268 CNS
[22] = system: COLO 205 colon
[23] = system: MDA-MB-231 breast
[24] = system: TK-10 renal
[25] = system: RPMI-8226 leukemia
[26] = system: HS 578T breast
[27] = system: HCC-2998 colon
[28] = system: IGROV1 ovarian
[29] = system: K-562 leukemia
[30] = system: SK-OV-3 ovarian
[31] = system: ACHN renal
[32] = system: DU-145 prostate
[33] = system: SK-MEL-5 melanoma
[34] = system: SK-MEL-28 melanoma
[35] = system: UACC-62 melanoma
[36] = system: M14 melanoma
[37] = system: PC-3 prostate
[38] = system: A549 NSCLC
[39] = system: HOP-62 NSCLC
[40] = system: HCT-116 colon
[41] = system: MCF7 breast
[42] = system: LOX IMVI melanoma
[43] = system: HCT-15 colon
[44] = system: SK-MEL-2 melanoma
[45] = system: MOLT-4 leukemia
[46] = system: NCI-H460 lung
[47] = system: OVCAR-4 ovarian
[48] = system: 786-0 renal
[49] = system: RXF 393 renal
[50] = system: SNB-75 CNS
[51] = system: HL-60(TB) leukemia
[52] = system: SW-620 colon
[53] = system: BT-549 breast
[54] = system: NCI-H226 lung
[55] = system: NCI-H23 lung
[56] = system: NCI-H522 lung

Work on COc1ccc(NC(=O)c2ccc(NC3=C(Cl)C(=O)N(Cc4ccccc4)C3=O)cc2)c(OC)c1 yielded a GI50 [1] of 25.7 µM, a TGI [1] of 99.1 µM and a GI50 [2] of 41.5 µM. The TGI [2] was > 100 µM, the GI50 [3] was 64.9 µM and the TGI [3] was > 100 µM. For the same compound, the GI50 [4] was 40.5 µM, the TGI [4] was > 100 µM and the GI50 [5] was 0.637 µM. The TGI [5] was 1.96 µM, the GI50 [6] was 15.1 µM and the TGI [6] was 33.2 µM. For the same compound, the GI50 [7] was 1.39 µM, the TGI [7] was 3.98 µM and the GI50 [8] was 29.2 µM. The TGI [8] was > 100 µM, the GI50 [9] was 27.2 µM and the TGI [9] was 86.3 µM. The GI50 [10] was 6.27 µM, the TGI [10] was 47 µM and the GI50 [11] was 57.4 µM. The TGI [11] was > 100 µM, the GI50 [12] was 29.2 µM and the TGI [12] was 83.5 µM. For the same compound, the GI50 [13] was 38.9 µM, the TGI [13] was > 100 µM and the GI50 [14] was 17.8 µM. The TGI [14] was 47.3 µM, the GI50 [15] was 49.3 µM and the TGI [15] was > 100 µM. It also gave a GI50 [16] of 16.7 µM, a TGI [16] of 48.9 µM and a GI50 [17] of 61.1 µM. For the same compound, the TGI [17] was > 100 µM, the GI50 [18] was 28.2 µM and the TGI [18] was 67.1 µM. The GI50 [19] was 27.7 µM, the TGI [19] was 92.8 µM and the GI50 [20] was 47 µM. For the same compound, the TGI [20] was > 100 µM, the GI50 [21] was 29.1 µM and the TGI [21] was > 100 µM. For the same compound, the GI50 [22] was 44.4 µM, the TGI [22] was > 100 µM and the GI50 [23] was > 100 µM. The TGI [23] was > 100 µM, the GI50 [24] was 22.8 µM and the TGI [24] was > 100 µM. The GI50 [25] was 4.85 µM, the TGI [25] was 22.8 µM and the GI50 [26] was > 100 µM. For the same compound, the TGI [26] was > 100 µM, the GI50 [27] was 10.1 µM and the TGI [27] was 21.7 µM. It also gave a GI50 [28] of 10.8 µM, a TGI [28] of 73.8 µM and a GI50 [29] of 8.18 µM. For the same compound, the TGI [29] was 43 µM, the GI50 [30] was > 100 µM and the TGI [30] was > 100 µM. For the same compound, the GI50 [31] was 36 µM, the TGI [31] was > 100 µM and the GI50 [32] was 28.8 µM. It also gave a TGI [32] of 85.7 µM, a GI50 [33] of 26.2 µM and a TGI [33] of 75.2 µM. For the same compound, the GI50 [34] was 83.3 µM, the TGI [34] was > 100 µM and the GI50 [35] was 37.2 µM. For the same compound, the TGI [35] was > 100 µM, the GI50 [36] was 18.5 µM and the TGI [36] was 48 µM. The GI50 [37] was 25.7 µM, the TGI [37] was > 100 µM and the GI50 [38] was 45.4 µM. For the same compound, the TGI [38] was > 100 µM, the GI50 [39] was 19 µM and the TGI [39] was 53.7 µM. For the same compound, the GI50 [40] was 5.4 µM, the TGI [40] was 25.6 µM and the GI50 [41] was 33.7 µM. The TGI [41] was > 100 µM, the GI50 [42] was 30.1 µM and the TGI [42] was > 100 µM. For the same compound, the GI50 [43] was 20 µM, the TGI [43] was 46.3 µM and the GI50 [44] was 25.7 µM. For the same compound, the TGI [44] was 68.9 µM, the GI50 [45] was 9.94 µM and the TGI [45] was 36.2 µM. The GI50 [46] was 38.4 µM, the TGI [46] was > 100 µM and the GI50 [47] was 61.8 µM. The TGI [47] was > 100 µM, the GI50 [48] was 23.3 µM and the TGI [48] was > 100 µM. The GI50 [49] was 50.2 µM, the TGI [49] was > 100 µM and the GI50 [50] was 47.1 µM. For the same compound, the TGI [50] was > 100 µM, the GI50 [51] was 13.2 µM and the TGI [51] was 31.1 µM. For the same compound, the GI50 [52] was 29.2 µM, the TGI [52] was > 100 µM and the GI50 [53] was 13.1 µM. The TGI [53] was 45 µM, the GI50 [54] was 43.9 µM and the TGI [54] was > 100 µM. It also gave a GI50 [55] of 14.3 µM, a TGI [55] of 29.2 µM and a GI50 [56] of 19 µM. It also gave a TGI [56] of 68.9 µM.

Reference: PubChem BioAssay (NCI)
